Calls of active or inactive are those of the source.
Experiments:
[1] = target: 26S proteasome non-ATPase regulatory subunit 14 (Homo sapiens, UniProt O00487); assay: inhibition of proteasome subunit RPN11 – biochemical, fluorescence polarization, uHTS hits, confirmation (AID 602368); format: functional
[2] = target: 72 kDa type IV collagenase (Homo sapiens, UniProt P08253); assay: Dose Response validation of uHTS RPN11 inhibitor hits using a MMP-2 Fluorescence assay.; format: functional
[3] = target: Prothrombin (Bos taurus, UniProt P00735); assay: thrombin protease inhibitors – biochemical, fluorescence polarization, uHTS hits, dose response (AID 602369); format: functional
[4] = system: HEK293; assay: EBV LMP1 TES2 canonical NF-kB signalling blockers – cell-based, HEK293, luciferase, cherry-pick, dose response (AID 588343); format: functional; conditions: Homo sapiens
[5] = target: T1, Corticotropin-releasing factor receptor 2/Corticotropin-releasing factor-binding protein (Homo sapiens, UniProt P24387+Q13324); assay: Dose Response confirmation of uHTS hits for small molecule antagonists of the CRF-binding protein and CRF-R2 receptor complex.; format: functional; conditions: read-out: IC50_Mean
T1 sequence (Q13324 whole entry): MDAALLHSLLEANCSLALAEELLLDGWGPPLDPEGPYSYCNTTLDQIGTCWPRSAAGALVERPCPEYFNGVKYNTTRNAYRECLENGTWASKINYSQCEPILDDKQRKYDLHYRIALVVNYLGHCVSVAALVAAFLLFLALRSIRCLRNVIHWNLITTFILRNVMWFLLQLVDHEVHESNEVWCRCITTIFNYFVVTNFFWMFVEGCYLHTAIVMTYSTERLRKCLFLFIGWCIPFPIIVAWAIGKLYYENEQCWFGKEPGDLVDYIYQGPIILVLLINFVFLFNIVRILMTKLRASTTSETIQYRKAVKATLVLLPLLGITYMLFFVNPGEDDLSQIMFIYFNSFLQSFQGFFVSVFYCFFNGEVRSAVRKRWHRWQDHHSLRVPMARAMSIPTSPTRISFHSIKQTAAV
T1 sequence (P24387 whole entry): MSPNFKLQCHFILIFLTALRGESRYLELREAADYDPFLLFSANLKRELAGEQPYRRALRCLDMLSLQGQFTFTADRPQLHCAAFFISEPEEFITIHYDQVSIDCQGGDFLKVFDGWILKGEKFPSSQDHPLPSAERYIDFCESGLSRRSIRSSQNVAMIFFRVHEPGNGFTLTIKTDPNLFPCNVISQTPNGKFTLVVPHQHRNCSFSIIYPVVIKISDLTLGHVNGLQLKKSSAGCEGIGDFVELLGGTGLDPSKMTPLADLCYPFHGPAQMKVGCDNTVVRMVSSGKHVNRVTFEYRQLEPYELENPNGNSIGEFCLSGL

[6] = target: T1, Corticotropin-releasing factor receptor 2/Corticotropin-releasing factor-binding protein; assay: activators of CRF receptor 2 with binding protein – uHTS hits, confirmation (AID 602473); format: functional; conditions: read-out: EC50_Mean
[7] = system: CHO; assay: CHO cell viability loss, potency – luminescence, cytotoxicity control for TLR9-MyD88 binding inhibitor project, dose response (AID 588339); format: functional, cell-based, hamster; conditions: Cricetulus griseus;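 also: CHO cells stably coexpressing TLR9 and MyD88 fusions from primary screen; compound exposure lasted 48 hours before viability readout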
[8] = target: T2, Endoribonuclease toxin MazF (Escherichia coli K-12, UniProt P0AE70); assay: activation of MazEF endoribonuclease cleavage – biochemical, fluorescence, single-stranded RNA substrate, uHTS hits, dose response (AID 588481); format: functional
T2 sequence (P0AE70 whole entry): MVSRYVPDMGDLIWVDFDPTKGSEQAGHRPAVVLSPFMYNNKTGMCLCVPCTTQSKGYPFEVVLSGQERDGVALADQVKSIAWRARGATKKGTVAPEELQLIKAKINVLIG

[9] = target: Beta Lactamase (Pseudomonas aeruginosa, UniProt Q932Y6); assay: BLA reporter interference, concentration series – BLA reporter cells, FRET fluorescence, artefact control for TLR9-MyD88 binding inhibitor project, dose response (AID 588341); format: cell-based;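 also: cell based assay in CHO-K1 cells stably expressing beta-lactamase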
Chain of Beta Lactamase (Q932Y6 whole entry): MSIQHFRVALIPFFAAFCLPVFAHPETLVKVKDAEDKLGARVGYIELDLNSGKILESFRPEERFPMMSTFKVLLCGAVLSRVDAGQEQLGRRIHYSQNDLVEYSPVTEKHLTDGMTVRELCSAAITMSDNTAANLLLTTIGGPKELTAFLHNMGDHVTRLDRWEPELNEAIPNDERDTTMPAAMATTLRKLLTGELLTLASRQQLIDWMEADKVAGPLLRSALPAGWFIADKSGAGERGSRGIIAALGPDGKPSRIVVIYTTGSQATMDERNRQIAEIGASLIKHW

[10] = target: T2, Endoribonuclease toxin MazF; assay: substrate-only fluorescence increase artefacts – biochemical, single-stranded RNase substrate, counter-screen for MazEF activator project, dose response (AID 588502); format: functional
[11] = target: Arf-GAP with SH3 domain, ANK repeat and PH domain-containing protein 1 (Homo sapiens, UniProt Q9ULH1); format: functional;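 also: biochemical fluorescence polarization dose–response screen measuring inhibition of ASAP1; ASAP1 GAP domain stimulating GTP hydrolysis by truncated human ARF1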
Chain of Arf-GAP with SH3 domain, ANK repeat and PH domain-containing protein 1 (Q9ULH1 whole entry, the tested form may be a part): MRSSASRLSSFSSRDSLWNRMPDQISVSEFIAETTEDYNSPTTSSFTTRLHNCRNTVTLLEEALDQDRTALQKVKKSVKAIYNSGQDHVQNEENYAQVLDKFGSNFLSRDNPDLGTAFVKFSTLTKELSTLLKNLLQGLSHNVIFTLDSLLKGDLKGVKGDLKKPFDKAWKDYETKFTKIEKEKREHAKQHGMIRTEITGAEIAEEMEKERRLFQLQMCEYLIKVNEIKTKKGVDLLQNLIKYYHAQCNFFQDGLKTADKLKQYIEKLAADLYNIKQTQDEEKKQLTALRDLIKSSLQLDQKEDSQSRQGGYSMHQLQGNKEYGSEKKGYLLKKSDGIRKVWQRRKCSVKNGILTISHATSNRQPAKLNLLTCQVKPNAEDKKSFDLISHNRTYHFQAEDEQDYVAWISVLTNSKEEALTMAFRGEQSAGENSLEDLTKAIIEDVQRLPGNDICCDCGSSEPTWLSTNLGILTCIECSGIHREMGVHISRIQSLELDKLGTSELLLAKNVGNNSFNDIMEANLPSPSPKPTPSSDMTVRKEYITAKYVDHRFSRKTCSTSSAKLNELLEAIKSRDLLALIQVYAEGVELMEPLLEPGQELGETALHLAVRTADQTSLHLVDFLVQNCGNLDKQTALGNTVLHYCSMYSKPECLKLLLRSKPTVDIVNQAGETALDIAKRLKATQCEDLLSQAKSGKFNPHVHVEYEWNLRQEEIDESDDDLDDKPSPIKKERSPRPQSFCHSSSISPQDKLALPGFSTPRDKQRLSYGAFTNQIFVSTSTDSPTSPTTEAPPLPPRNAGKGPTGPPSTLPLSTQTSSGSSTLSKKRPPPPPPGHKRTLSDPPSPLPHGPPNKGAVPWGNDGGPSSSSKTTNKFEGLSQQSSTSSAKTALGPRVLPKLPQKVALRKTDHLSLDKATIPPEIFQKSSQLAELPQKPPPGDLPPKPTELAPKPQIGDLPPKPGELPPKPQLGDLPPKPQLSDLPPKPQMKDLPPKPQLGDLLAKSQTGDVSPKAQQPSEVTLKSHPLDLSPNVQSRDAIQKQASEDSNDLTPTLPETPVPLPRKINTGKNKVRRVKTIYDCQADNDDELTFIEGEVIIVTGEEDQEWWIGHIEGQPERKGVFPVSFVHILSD

[12] = target: T3, Carboxy-terminal domain RNA polymerase II polypeptide A small phosphatase 1 (Homo sapiens, UniProt Q9GZU7); assay: CTDSP1 inhibitors, concentration-response, biochemical, absorbance readout, ultra-high-throughput screen actives (AID 540297); format: functional
T3 sequence (Q9GZU7 whole entry): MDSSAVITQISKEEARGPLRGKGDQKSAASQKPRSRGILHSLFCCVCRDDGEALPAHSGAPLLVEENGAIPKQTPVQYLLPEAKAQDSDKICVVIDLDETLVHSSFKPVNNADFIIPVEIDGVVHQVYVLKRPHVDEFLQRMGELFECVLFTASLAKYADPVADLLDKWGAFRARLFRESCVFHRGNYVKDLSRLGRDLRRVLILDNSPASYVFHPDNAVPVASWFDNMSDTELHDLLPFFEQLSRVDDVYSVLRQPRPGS

Chain of 72 kDa type IV collagenase (P08253 whole entry): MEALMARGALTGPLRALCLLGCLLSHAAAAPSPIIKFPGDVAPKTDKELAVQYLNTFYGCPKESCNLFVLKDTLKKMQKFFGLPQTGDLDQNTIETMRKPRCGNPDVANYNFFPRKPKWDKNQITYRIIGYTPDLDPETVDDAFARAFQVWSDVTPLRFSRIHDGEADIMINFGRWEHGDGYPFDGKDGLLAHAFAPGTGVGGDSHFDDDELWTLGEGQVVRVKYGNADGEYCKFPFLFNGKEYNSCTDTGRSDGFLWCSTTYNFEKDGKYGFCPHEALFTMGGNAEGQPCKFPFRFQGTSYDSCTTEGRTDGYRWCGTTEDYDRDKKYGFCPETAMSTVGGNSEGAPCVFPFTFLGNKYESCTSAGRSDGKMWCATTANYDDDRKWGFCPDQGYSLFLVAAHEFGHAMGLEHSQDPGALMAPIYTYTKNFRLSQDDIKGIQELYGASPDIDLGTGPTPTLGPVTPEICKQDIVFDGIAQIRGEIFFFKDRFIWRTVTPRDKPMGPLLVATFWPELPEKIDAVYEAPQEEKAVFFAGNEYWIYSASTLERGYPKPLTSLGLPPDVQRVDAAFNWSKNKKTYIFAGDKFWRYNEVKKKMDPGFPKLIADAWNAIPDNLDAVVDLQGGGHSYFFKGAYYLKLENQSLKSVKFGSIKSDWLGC
Chain of 26S proteasome non-ATPase regulatory subunit 14 (O00487 whole entry): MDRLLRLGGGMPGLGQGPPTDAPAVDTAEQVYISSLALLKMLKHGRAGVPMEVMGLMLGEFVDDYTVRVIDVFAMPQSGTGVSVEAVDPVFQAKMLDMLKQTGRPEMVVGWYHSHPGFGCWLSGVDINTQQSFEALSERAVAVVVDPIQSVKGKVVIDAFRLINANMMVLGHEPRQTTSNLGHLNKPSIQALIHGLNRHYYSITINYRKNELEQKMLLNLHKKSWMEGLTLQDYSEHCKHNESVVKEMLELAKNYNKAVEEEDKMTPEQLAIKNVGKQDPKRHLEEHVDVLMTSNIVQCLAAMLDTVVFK

With `O=Cc1sc(Nc2ccccc2)nc1Cl` the IC50 [1] was 8.23 µM (active), the IC50 [2] was > 100 µM (inactive) and the IC50 [3] was 11.4 µM (active).

`COc1ccc(C(=O)Nn2c(SCC(=O)NC3CCCCC3)nc3ccccc3c2=O)cc1` was tested, and the AC50 [4] was 6.79 µM (active), the IC50 [5] was < 0.368 µM (active) and the EC50 [6] was > 53 µM (inactive).

In the case of `COc1cc2c3nnc(-c4ccc(F)cc4)c-3cn(Cc3cccc(C)c3)c2cc1OC`, the IC50 [7] is reported as 10.2 µM (inactive), the EC50 [8] is reported as 24.1 µM (inactive) and the IC50 [9] is reported as 3.92 µM (active). The EC50 [10] was 16.7 µM (active) and the IC50 [11] was 7.44 µM (active).

For `O=C(NNc1ncnc2ccccc12)c1cccc(Cl)c1`, the IC50 [12] was 18.5 µM (active), the IC50 [1] was 24.8 µM (active) and the IC50 [2] was > 100 µM (inactive). For the same molecule, the IC50 [3] was 71.3 µM (active).
